Experiments:
JMJD2C = JMJD2C (Homo sapiens (Human), UniProt Q9H3R0); assay: In vitro enzyme inhibition assay for JMJD2C activity (TR-FRET); assay type: biochemical
Procedure: This assay determines the ability of a test compound to inhibit JMJD2C demethylase activity. Baculovirus expressed JMJD2C (GenBank Accession #BC143571, AA 2-372) was purchased from BPS Bioscience (Cat#50105).
The ability of test compounds to inhibit the activity of JMJD2C was determined in 384-well plate format under the following reaction conditions: 0.3 nM JMJD2C, 300 nM H3K9me3-biotin labeled peptide (Anaspec cat #64360), 2 μM alpha-ketoglutaric acid in assay buffer of 50 mM HEPES, pH7.3, 0.005% Brij35, 0.5 mM TCEP, 0.2 mg/ml BSA, 50 μM sodium L-ascorbate, and 2 μM ammonium iron(II) sulfate. Reaction product was determined quantitatively by TR-FRET after the addition of detection reagent Phycolink Streptavidin-allophycocyanin (Prozyme) and Europium-anti-di-methylated histone H3 lysine 9 (H3K9me2) antibody (PerkinElmer) in the presence of 5 mM EDTA in LANCE detection buffer (PerkinElmer) at a final concentration of 50 nM and 1 nM, respectively.
(§1) The assay reaction was initiated by the following: 2 μl of the mixture of 900 nM H3K9me3-biotin labeled peptide and 6 μM alpha-ketoglutaric acid with 2 μl of 11-point serial diluted inhibitor in 3% DMSO were added to each well of the plate, followed by the addition of 2 μl of 0.9 nM JMJD2C to initiate the reaction. The reaction mixture was incubated at RT for 30 min, and terminated by the addition of 6 μl of 5 mM EDTA in LANCE detection buffer containing 100 nM Phycolink Streptavidin-allophycocyanin and 2 nM Europium-anti-H3K9me2 antibody. Plates were read by EnVisionMultilabel Reader in TR-FRET mode (excitation at 320 nm, emission at 615 nm and 665 nm) after 1 hr incubation at RT. A ratio was calculated (665/615) for each well and fitted to determine inhibition constant (IC50).

JMJD3 = JMJD3 (Homo sapiens, UniProt O15054); assay: In vitro enzyme inhibition assay for JMJD3 activity (TR-FRET); assay type: biochemical
Procedure: This assay determines the ability of a test compound to inhibit JMJD3 demethylase activity. Baculovirus expressed JMJD3 (GenBank Accession #NM-001080424, AA1043-end) was purchased from BPS Bioscience (Cat#50115).
The enzymatic assay of JMJD3 activity is based upon Time Resolved-Fluorescence Resonance Energy Transfer (TR-FRET) detection. The ability of test compounds to inhibit the activity of JMJD3 was determined in 384-well plate format under the following reaction conditions: 5 nM JMJD3, 250 nM H3K27me3-biotin labeled peptide (Anaspec cat #64367), 0.4 to 2 μM α-ketoglutaric acid in assay buffer of 50 mM HEPES, pH7.3, 0.005% Brij35, 0.5 mM TCEP, 0.2 mg/ml BSA, 50 μM sodium L-ascorbate, and 5 μM ammonium iron(II) sulfate. Reaction product was determined quantitatively by TR-FRET after the addition of detection reagent Phycolink Streptavidin-allophycocyanin (Prozyme) and Europium-anti-H3K27me2 antibody (PerkinElmer) in the presence of 5 mM EDTA in LANCE detection buffer (PerkinElmer) at a final concentration of 50 nM and 1 nM, respectively.
The assay reaction was initiated by the following: […] of the mixture of 750 nM H3K27me3-biotin labeled peptide and 1.2 to 6 μM alpha-ketoglutaric acid with 2 μL of 11-point serial diluted inhibitor in 3% DMSO were added to each well of plate, followed by the addition of 2 μl of 15 nM JMJD3 to initiate the reaction. The reaction mixture was incubated at RT for 30 min, and terminated by the addition of 6 μL of 5 mM EDTA in LANCE detection buffer containing 100 nM Phycolink Streptavidin-allophycocyanin and 2 nM Europium-anti-H3K27me2 antibody. Plates were read by EnVisionMultilabel Reader in TR-FRET mode (excitation at 320 nm, emission at 615 nm and 665 nm) after 1 hr incubation at RT. A ratio from the readout of 665/615 was calculated for each well and fitted to determine inhibition constant (IC50).

Jarid1B = Jarid1B (Homo sapiens (Human), UniProt Q9UGL1); assay: In vitro enzyme inhibition assay for Jarid1B activity (TR-FRET); assay type: biochemical
Chain of Jarid1B (Q9UGL1 whole entry, species assumed): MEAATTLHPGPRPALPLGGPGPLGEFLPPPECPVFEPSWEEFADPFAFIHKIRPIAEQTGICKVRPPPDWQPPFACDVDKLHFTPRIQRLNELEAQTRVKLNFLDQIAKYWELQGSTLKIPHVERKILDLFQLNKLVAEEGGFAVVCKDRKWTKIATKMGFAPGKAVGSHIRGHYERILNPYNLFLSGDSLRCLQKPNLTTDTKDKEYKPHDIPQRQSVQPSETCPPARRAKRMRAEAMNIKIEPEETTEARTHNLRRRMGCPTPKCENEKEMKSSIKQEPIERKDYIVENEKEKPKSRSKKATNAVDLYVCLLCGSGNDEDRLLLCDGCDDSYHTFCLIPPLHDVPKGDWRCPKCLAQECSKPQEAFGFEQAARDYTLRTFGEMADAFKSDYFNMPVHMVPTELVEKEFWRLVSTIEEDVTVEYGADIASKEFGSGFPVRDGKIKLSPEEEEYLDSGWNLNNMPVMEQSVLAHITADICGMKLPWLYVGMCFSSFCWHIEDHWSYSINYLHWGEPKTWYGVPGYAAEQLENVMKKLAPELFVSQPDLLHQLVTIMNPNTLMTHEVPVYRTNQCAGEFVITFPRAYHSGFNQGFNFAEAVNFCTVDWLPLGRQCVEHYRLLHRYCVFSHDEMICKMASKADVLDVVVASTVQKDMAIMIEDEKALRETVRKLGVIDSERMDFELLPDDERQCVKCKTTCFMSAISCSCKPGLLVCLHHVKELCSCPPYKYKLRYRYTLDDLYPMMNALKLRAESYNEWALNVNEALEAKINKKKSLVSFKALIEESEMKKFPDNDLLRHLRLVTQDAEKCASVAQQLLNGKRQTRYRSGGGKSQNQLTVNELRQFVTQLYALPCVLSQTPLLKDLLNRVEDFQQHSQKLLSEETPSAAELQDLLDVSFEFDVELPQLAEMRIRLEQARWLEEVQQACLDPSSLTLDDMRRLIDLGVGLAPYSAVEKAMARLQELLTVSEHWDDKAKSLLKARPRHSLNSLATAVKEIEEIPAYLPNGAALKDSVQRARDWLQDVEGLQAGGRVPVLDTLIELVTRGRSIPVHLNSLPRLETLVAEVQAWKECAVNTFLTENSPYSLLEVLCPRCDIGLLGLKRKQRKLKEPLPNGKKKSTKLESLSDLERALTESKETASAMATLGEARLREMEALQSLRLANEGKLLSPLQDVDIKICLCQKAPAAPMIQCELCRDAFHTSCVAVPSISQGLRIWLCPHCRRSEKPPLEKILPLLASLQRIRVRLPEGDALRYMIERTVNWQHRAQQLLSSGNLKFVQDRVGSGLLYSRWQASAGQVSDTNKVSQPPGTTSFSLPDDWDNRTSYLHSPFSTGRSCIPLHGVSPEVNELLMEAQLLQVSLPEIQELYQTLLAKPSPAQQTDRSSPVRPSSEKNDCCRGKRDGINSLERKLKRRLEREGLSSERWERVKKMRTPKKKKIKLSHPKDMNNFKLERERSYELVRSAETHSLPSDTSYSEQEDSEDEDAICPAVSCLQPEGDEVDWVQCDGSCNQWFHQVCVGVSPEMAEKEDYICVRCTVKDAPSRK
Procedure: The ability of test compounds to inhibit the activity of Jarid1B was determined in 384-well plate format under the following reaction conditions: 0.8 nM Jarid1B, 300 nM H3K4me3-biotin labeled peptide (Anaspec cat #64357), 2 μM alpha-ketoglutaric acid in assay buffer of 50 mM HEPES, pH7.3, 0.005% Brij35, 0.5 mM TCEP, 0.2 mg/ml BSA, 50 μM sodium L-ascorbate, and 2 μM ammonium iron(II) sulfate. Reaction product was determined quantitatively by TR-FRET after the addition of detection reagent Phycolink Streptavidin-allophycocyanin (Prozyme) and Europium-anti-H3K4me or -H3K4me2 antibody (PerkinElmer) in the presence of 5 mM EDTA in LANCE detection buffer (PerkinElmer) at a final concentration of 25 nM and 1 nM, respectively.
as §1, with “nM H3K4me3-biotin” for “nM H3K9me3-biotin”, “DMSO was” for “DMSO were”, “of 2.4” for “of 0.9”, “nM Jarid1B” for “nM JMJD2C”, “containing 50” for “containing 100”, “nM Europium-anti-H3K4me/H3K4me2” for “nM Europium-anti-H3K9me2”

[1] = tested on: esophageal squamous cell carcinoma KYSE-150 cells; assay: Cellular IC50 in KYSE-150 cells; assay type: cell-based; conditions: Homo sapiens, one class given per A and B pair
Source text: Table 7 provides IC50 values of various compounds disclosed herein, tested in cellular human esophageal squamous cell carcinoma KYSE-150 cells: […]

[2] = Table 4, cell gives A/B enantiomer values
[3] = Table 5, one class given per A and B pair

Chain of JMJD2C (Q9H3R0 2-372): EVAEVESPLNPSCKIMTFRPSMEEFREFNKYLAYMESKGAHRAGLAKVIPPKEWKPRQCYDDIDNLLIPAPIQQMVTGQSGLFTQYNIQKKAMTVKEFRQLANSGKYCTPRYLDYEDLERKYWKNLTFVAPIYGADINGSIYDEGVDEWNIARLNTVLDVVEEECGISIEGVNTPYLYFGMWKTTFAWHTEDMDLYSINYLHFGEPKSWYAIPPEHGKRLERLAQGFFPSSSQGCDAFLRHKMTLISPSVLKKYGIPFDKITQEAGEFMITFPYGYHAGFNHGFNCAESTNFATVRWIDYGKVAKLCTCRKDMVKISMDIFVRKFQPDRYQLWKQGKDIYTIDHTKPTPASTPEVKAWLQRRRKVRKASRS

Row | SMILES | IC50 (JMJD2C; [2]) | IC50 (JMJD2C; [3]) | IC50 (JMJD3; [2]) | IC50 (JMJD3; [3]) | IC50 (Jarid1B; [2]) | IC50 (Jarid1B; [3]) | IC50 [1]
1 | CC(C)c1ccc(N(C)c2ccc3c(c2)CN[C@@H]3CNc2cnccc2C(=O)O)cc1 [Example 6A, 3-{[((1S)-5-{methyl[4-isopropylphenyl]amino}isoindolinyl)methyl]amino}pyridine-4-carboxylic acid] | 1000 to 10000 nM | 1000 to 10000 nM | 1000 to 10000 nM | 1000 to 10000 nM | ≤ 100 nM | ≤ 100 nM | 100 to 1000 nM
2 | Cc1ccccc1-c1ccc2c(c1)CN(C)[C@H]2CNc1cnccc1C(=O)O [Example 21A, (R)-3-(((2-methyl-5-(o-tolyl)isoindolin-1-yl)methyl)amino)isonicotinic acid] | – | 100 to 1000 nM | – | 1000 to 10000 nM | – | ≤ 100 nM | ≤ 100 nM
3 | Cc1ccc(N(C)c2ccc3c(c2)CCN[C@H]3CNc2cnccc2C(=O)O)cc1 [Example 1B, 3-[({(1R)-6-[methyl(4-methylphenyl)amino]-1,2,3,4-tetrahydroisoquinolyl}methyl)amino]pyridine-4-carboxylic acid] | 100 to 1000 nM | 100 to 1000 nM | – | – | ≤ 100 nM | ≤ 100 nM | 1000 to 10000 nM
4 | CC(C)c1ccc(N(C)c2ccc3c(c2)CCN[C@H]3CNc2cnccc2C(=O)O)cc1 [Example 3B, 3-{[((1R)-6-{methyl[4-isopropylphenyl]amino}-1,2,3,4-tetrahydroisoquinolyl)methyl]amino}pyridine-4-carboxylic acid] | 100 to 1000 nM | 100 to 1000 nM | 100 to 1000 nM | 100 to 1000 nM | ≤ 100 nM | ≤ 100 nM | ≤ 100 nM
5 | Cc1cccc(C)c1-c1ccc2c(c1)CCN(C)[C@H]2CNc1cnccc1C(=O)O [Example 17A, (R)-3-(((6-(2,6-dimethylphenyl)-2-methyl-1,2,3,4-tetrahydroisoquinolin-1-yl)methyl)amino)isonicotinic acid] | – | 1000 to 10000 nM | – | – | – | ≤ 100 nM | –
6 | Cc1ccc(N(C)c2ccc3c(c2)CN[C@@H]3CNc2cnccc2C(=O)O)cc1 [Example 5A, 3-[({(1S)-5-[methyl(4-tolyl)amino]isoindolinyl}methyl)amino]pyridine-4-carboxylic acid] | – | – | – | – | ≤ 100 nM | ≤ 100 nM | 1000 to 10000 nM
7 | CCc1ccccc1-c1ccc2c(c1)CCN(C)[C@@H]2CNc1cnccc1C(=O)O [Example 15B, (S)-3-(((6-(2-ethylphenyl)-2-methyl-1,2,3,4-tetrahydroisoquinolin-1-yl)methyl)amino)isonicotinic acid] | – | 100 to 1000 nM | – | 1000 to 10000 nM | – | ≤ 100 nM | –
8 | Cc1cccc(C)c1-c1ccc2c(c1)CCN(C)[C@@H]2CNc1cnccc1C(=O)O [Example 17B, (S)-3-(((6-(2,6-dimethylphenyl)-2-methyl-1,2,3,4-tetrahydroisoquinolin-1-yl)methyl)amino)isonicotinic acid] | – | 1000 to 10000 nM | – | – | – | ≤ 100 nM | –
9 | CC(C)c1ccccc1-c1ccc2c(c1)CCN(C)[C@H]2CNc1cnccc1C(=O)O [Example 16A, (R)-3-(((6-(2-isopropylphenyl)-2-methyl-1,2,3,4-tetrahydroisoquinolin-1-yl)methyl)amino)isonicotinic acid] | – | 1000 to 10000 nM | – | – | – | ≤ 100 nM | –
10 | CCc1ccccc1-c1ccc2c(c1)CCN(C)[C@H]2CNc1cnccc1C(=O)O [Example 15A, (R)-3-(((6-(2-ethylphenyl)-2-methyl-1,2,3,4-tetrahydroisoquinolin-1-yl)methyl)amino)isonicotinic acid] | – | 100 to 1000 nM | – | 1000 to 10000 nM | – | ≤ 100 nM | –
11 | CC(C)c1ccccc1-c1ccc2c(c1)CCN(C)[C@@H]2CNc1cnccc1C(=O)O [Example 16B, (S)-3-(((6-(2-isopropylphenyl)-2-methyl-1,2,3,4-tetrahydroisoquinolin-1-yl)methyl)amino)isonicotinic acid] | – | 1000 to 10000 nM | – | – | – | ≤ 100 nM | –

Continued, values first:

Row | IC50 (JMJD2C; [2]) | IC50 (JMJD2C; [3]) | IC50 (JMJD3; [2]) | IC50 (JMJD3; [3]) | IC50 (Jarid1B; [2]) | IC50 (Jarid1B; [3]) | IC50 [1] | SMILES
12 | – | 100 to 1000 nM | – | 1000 to 10000 nM | – | ≤ 100 nM | ≤ 100 nM | CCCc1ccc(N(C)c2ccc3c(c2)CN(C)[C@H]3CNc2cnccc2C(=O)O)cc1 [Example 20A, (R)-3-(((2-methyl-5-(methyl (4-propylphenyl)amino)isoindolin-1-yl)methyl)amino)isonicotinic acid]
13 | – | 100 to 1000 nM | – | 1000 to 10000 nM | – | ≤ 100 nM | ≤ 100 nM | Cc1ccc(N(C)c2ccc3c(c2)CN(C)[C@@H]3CNc2cnccc2C(=O)O)cc1 [Example 18B, (S)-3-(((2-methyl-5-(methyl(p-tolyl)amino)isoindolin-1-yl)methyl)amino) isonicotinic acid]
14 | – | 1000 to 10000 nM | – | 1000 to 10000 nM | – | ≤ 100 nM | ≤ 100 nM | CCCc1ccc(N(C)c2ccc3c(c2)CCN(C)[C@@H]3CNc2cnccc2C(=O)O)cc1 [Example 14B, (S)-3-(((2-methyl-6-(methyl (4-propylphenyl)amino)-1,2,3,4-tetrahydroisoquinolin-1-yl)methyl)amino)isonicotinic acid]
15 | – | 100 to 1000 nM | – | 1000 to 10000 nM | – | ≤ 100 nM | ≤ 100 nM | Cc1ccc(N(C)c2ccc3c(c2)CCN(C)[C@H]3CNc2cnccc2C(=O)O)cc1 [Example 11A, (R)-3-(((2-methyl-6-(methyl(p-tolyl)amino)-1,2,3,4-tetrahydroisoquinolin-1-yl)methyl)amino)isonicotinic acid]
16 | – | 1000 to 10000 nM | – | 1000 to 10000 nM | – | ≤ 100 nM | 100 to 1000 nM | CCc1ccc(N(C)c2ccc3c(c2)CCN[C@@H]3CNc2cnccc2C(=O)O)cc1 [Example 10B, (S)-3-(((6-((4-ethylphenyl)(methyl)amino)-1,2,3,4-tetrahydroisoquinolin-1-yl)methyl)amino)isonicotinic acid]
17 | – | – | – | – | ≤ 100 nM | ≤ 100 nM | 1000 to 10000 nM | Cc1ccc(N(C)c2ccc3c(c2)CN[C@H]3CNc2cnccc2C(=O)O)cc1 [Example 5B, 3-[({(1R)-5-[methyl(4-tolyl)amino]isoindolinyl}methyl)amino] pyridine-4-carboxylic acid]

Reference: patent US10059687B2, “Histone demethylase inhibitors” (CELGENE QUANTICEL RESEARCH, INC., priority 2015, dated 2018)
